The supplement of paper PMC10307832

How the values were obtained:
Assay in all cases: relative viability (nuclei count vs DMSO), 5 days (fraction); higher = more cells survive
[1] = compound: Cc1ccc2nc(NCCN)c3ncc(C)n3c2c1 + C[C@]1(O)C[C@@H](c2nc(-c3ccc4ccc(-c5ccccc5)nc4c3)c3c(N)nccn32)C1 [Linsitinib] (partner 1 µM)
Outline: (§1)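 After 5 days of treatment, lung cancer cells in 1536-well plates were fixed and stained in a single step (final 0.05% Triton X-100, 1% formaldehyde, 1 ug/ml Hoechst) and their nuclei counted on 4× images. Treatment had been applied by pin tool the day after seeding as one drug alone or as a fixed anchor-drug dose with five library-drug doses (not always all listed) in √10 steps. Relative viability is the nuclei count of treated wells divided by that of vehicle wells, and values are medians of duplicate plates.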

Salubrinal + Foretinib = compound: O=C(/C=C/c1ccccc1)NC(NC(=S)Nc1cccc2cccnc12)C(Cl)(Cl)Cl [Salubrinal] + COc1cc2c(Oc3ccc(NC(=O)C4(C(=O)Nc5ccc(F)cc5)CC4)cc3F)ccnc2cc1OCCCN1CCOCC1 [Foretinib] (partner 0.25 µM)
Outline: as §1

[2] = compound: Cc1ccc2nc(NCCN)c3ncc(C)n3c2c1 + Cc1cc(Nc2cc(N3CCN(C)CC3)nc(Sc3ccc(NC(=O)C4CC4)cc3)n2)n[nH]1 [Tozasertib] (partner 0.1 µM)
Outline: as §1

Salubrinal + Alpelisib = compound: O=C(/C=C/c1ccccc1)NC(NC(=S)Nc1cccc2cccnc12)C(Cl)(Cl)Cl [Salubrinal] + Cc1nc(NC(=O)N2CCC[C@H]2C(N)=O)sc1-c1ccnc(C(C)(C)C(F)(F)F)c1 [Alpelisib] (partner 2 µM)
Outline: as §1

UMC-11 gave a relative viability ([1]; first compound 0.04 µM) of 1.03, a relative viability ([1]; first compound 0.1265 µM) of 0.94 and a relative viability ([1]; first compound 0.4 µM) of 1. For the same cell line, the relative viability ([1]; first compound 1.265 µM) was 1.12, the relative viability ([1]; first compound 4 µM) was 0.956 and the relative viability (Salubrinal + Foretinib; first compound 0.08 µM) was 1.17. For the same cell line, the relative viability (Salubrinal + Foretinib; first compound 0.253 µM) was 1, the relative viability (Salubrinal + Foretinib; first compound 0.8 µM) was 1.13 and the relative viability (Salubrinal + Foretinib; first compound 2.53 µM) was 1.1. The relative viability (Salubrinal + Foretinib; first compound 8 µM) was 1.21, the relative viability ([2]; first compound 0.04 µM) was 0.211 and the relative viability ([2]; first compound 0.1265 µM) was 0.233. It also gave a relative viability ([2]; first compound 0.4 µM) of 0.209, a relative viability ([2]; first compound 1.265 µM) of 0.205 and a relative viability ([2]; first compound 4 µM) of 0.194. The relative viability (Salubrinal + Alpelisib; first compound 0.08 µM) was 1.29, the relative viability (Salubrinal + Alpelisib; first compound 0.253 µM) was 0.782 and the relative viability (Salubrinal + Alpelisib; first compound 0.8 µM) was 1.11. It also gave a relative viability (Salubrinal + Alpelisib; first compound 2.53 µM) of 0.963 and a relative viability (Salubrinal + Alpelisib; first compound 8 µM) of 0.89.
